Measurements published in patent US8937052B2, “Therapeutic protocols using hyaluronan” (Alchemia Oncology Pty Limited, priority 2005, dated 2015).
Where a name gives a salt, the structure may show the parent alone.

How the values were obtained:
[1] = In situ perfusion: survival until experimental end-point; assay type: in vivo, Wistar rats; details: irinotecan 60 mg/kg single i.v.
[2] = irinotecan 60 mg/kg i.v. (HyCAMP 26.6/60); 90 minute time point
[3] = irinotecan 30 mg/kg i.v. (HyCAMP 26.6/30); 120 min
[4] = irinotecan 30 mg/kg i.v.
[5] = biological target: T1, tumour cell endogenous beta-glucuronidase (Homo sapiens, UniProt P08236); test: Endogenous beta-glucuronidase activity in tumour cell lysates incubated overnight with HA, compared to samples not containing hyaluronan; assay type: biochemical; details: modelled from ≧2 μg of HA per μg tumour cell protein and 0.135 ng protein/cell
T1 construct: Activity of Endogenous Beta-Glucuronidase in Tumor Cells In Vitro; endogenous in cells; host or cells: HCT-116, LIM-1215, LIM-2099, SK-CO1, SW-1222, HT-29, SW-620, MSTO-211H, MDA-MB-468, MDA-MB-435 lysates
T1 sequence (P08236 23-651): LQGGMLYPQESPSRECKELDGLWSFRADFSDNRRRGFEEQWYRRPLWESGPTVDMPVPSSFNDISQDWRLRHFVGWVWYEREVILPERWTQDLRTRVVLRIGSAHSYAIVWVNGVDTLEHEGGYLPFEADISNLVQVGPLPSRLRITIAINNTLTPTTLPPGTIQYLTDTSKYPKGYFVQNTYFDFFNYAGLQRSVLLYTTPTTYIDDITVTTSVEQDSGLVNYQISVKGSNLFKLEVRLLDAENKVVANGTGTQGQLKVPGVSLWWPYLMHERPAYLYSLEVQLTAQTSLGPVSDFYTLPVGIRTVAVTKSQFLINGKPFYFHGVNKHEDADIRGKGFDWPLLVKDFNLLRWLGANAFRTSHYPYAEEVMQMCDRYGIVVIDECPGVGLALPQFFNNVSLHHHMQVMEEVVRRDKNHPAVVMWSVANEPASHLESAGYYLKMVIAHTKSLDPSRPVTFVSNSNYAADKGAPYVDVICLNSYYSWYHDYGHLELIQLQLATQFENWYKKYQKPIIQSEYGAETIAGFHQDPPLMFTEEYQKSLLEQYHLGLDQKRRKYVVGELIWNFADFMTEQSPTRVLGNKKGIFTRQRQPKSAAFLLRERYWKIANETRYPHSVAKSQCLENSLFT
Method: Stocks of the tumor cell lysates (0.8 mg protein/ml) were prepared from the original cell lysates. The hyaluronan stock of 10 mg/ml (10 kDa & 860 kDa) was diluted with potassium phosphate buffer to achieve 8 mg/ml, 3.2 mg/ml, 1.6 mg/ml, 0.4 mg/ml, 0.2 mg/ml, 0.04 mg/ml, 0.02 mg/ml and 0.0008 mg/ml of hyaluronan. The 25 mg/ml of <2 kDa HA was diluted further with potassium phosphate buffer to achieve 8 mg/ml, 3.2 mg/ml, 1.6 mg/ml, 0.4 mg/ml, 0.2 mg/ml, 0.04 mg/ml, 0.02 mg/ml and 0.0008 mg/ml of hyaluronan. The assay samples were prepared by aliquoting 125 μl of the different dilutions of hyaluronan to an Eppendorf tube containing 125 μl of 0.8 mg protein/ml cell lysates of the following cell lines; HCT-116, LIM-1215, LIM-2099, SK-CO1, SW-1222, HT-29, SW-620, MSTO-211H, MDA-MB-468 and MDA-MB-435. […] On completion of the incubation, the samples were thoroughly mixed by repeated invert mixing (˜20 times) after which the beta-glucuronidase was quantified using the 96-well-plate method.
The assay was performed in the wells of a black clear-bottom 96-well-plate where 50 μL of the tumour cell lysates (20 μg protein) were added to the wells and 50 μL of 75 mM of potassium phosphate buffer was used as the control blanking well. […] On completion of the incubation, 50 μL of stop buffer was added and the plate was read at 350 nm excitation and 450 nm emission on a Fluostar Optima plate reader.

Carboxylesterase = Carboxylesterase activity in tissue homogenates of the liver and the GI-tract; assay type: biochemical
Source text: Carboxylesterase • 2. beta-glucuronidase
Tissue homogenates of the liver and the GI-tract were used as the source of each enzyme. […] In addition to this mechanism, inhibition of beta-glucuronidase in the lumen of the GI tract would prevent the generation of SN-38 from SN-38G.

[6] = in vivo
Source text: HA. […] All body organs and fluids were removed, weighed and [^3H] radioactivity quanitated using β-scintillation counting.

Compound | survival until experimental end-point [1] | cumulative biliary excretion of CPT-11 [2] | cumulative intestinal exsorption of CPT-11 [3] | quantities of SN-38 found in the spleen and lung [4] | HA per cell resulting in stimulation of endogenous beta-glucuronidase activity [5] | effect on carboxylesterase activity (Carboxylesterase) | HA per tumour cell [6] | HA that would accumulate per gram of tumour [6]
CCc1c2c(nc3ccc(OC(=O)N4CCC(N5CCCCC5)CC4)cc13)-c1cc3c(c(=O)n1C2)COC(=O)[C@]3(O)CC [CPT-11, Irinotecan hydrochloride] | only one rat survived | 1388 µg | 525 µg | could not be detected |  |  |  | 
hyaluronan [HA] |  |  |  |  | ≥ 270 pg HA/cell | did not affect the activity of carboxylesterase | 51.6 pg of HA/cell | approximately 51.6 mg
